Tests used:
CYP2C8 = molecular target: T1, CYP2C8 (Homo sapiens, UniProt P10632)
T1 sequence (P10632 1-490): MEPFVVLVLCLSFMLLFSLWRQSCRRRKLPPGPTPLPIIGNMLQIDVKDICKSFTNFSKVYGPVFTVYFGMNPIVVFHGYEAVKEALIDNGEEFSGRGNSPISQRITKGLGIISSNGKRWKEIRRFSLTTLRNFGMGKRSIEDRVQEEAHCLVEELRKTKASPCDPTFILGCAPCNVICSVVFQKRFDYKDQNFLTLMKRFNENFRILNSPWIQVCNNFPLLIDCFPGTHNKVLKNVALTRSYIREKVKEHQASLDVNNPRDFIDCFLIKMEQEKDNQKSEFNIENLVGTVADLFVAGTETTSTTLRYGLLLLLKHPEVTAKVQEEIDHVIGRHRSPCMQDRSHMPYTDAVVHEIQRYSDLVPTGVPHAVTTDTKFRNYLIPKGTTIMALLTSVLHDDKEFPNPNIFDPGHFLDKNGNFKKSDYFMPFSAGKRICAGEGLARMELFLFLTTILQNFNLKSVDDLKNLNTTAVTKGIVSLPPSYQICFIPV

[1] = Equilibrium dialysis control in DPBS and stability in DPBS, plasma and brain homogenate; type: in vitro ADME, mouse; settings: for % Recovery / % Unbound: DPBS
Experimental: Samples of spiked plasma and blank buffer (Dulbecco's phosphate-buffered saline, DPBS) and spiked brain homogenate and blank DPBS added to opposing sides of a dialysis membrane were collected from triplicate equilibrium dialysis chambers prior to (t=0) and following 1, 2, 4 and 6 hours of incubation at 37° C. […] The LC-MS/MS method(s) for analytes (Compound I-19, Compound A and Compound B) was cross-qualified for the analysis of the DPBS samples.
A secondary stock solution of 200 μM (74.2 ug/mL) will be prepared in DMSO. This secondary stock solution will then be diluted 100-fold to 2 μM ([…]) with male CD-1 mouse plasma and brain homogenate (1:2 v/v brain:Dulbecco's phosphate buffered saline, pH 7-7.2) or buffer (DPBS).
To 2.97 mL aliquots of thawed mouse plasma or brain homogenate warmed to 37° C., 30 ul aliquots of the secondary stock solution of the test compound will be added for final concentrations of 2 μM (0.742 ug/mL). An appropriate volume of warmed buffer (DPBS) will also be spiked with the test compound at a concentration of 2 μM ([…]). Triplicate aliquots (50 μL) of each spiked plasma, brain homogenate and buffer solution will be collected prior to dialysis into labeled 1.5 mL polypropylene tubes and then stored at approximately −80° C. until bioanalysis.

[2] = Stability in components of human blood; type: in vitro ADME; settings: 0.5 mM, 37° C., 0-120 min
Experimental: FIG. 3A. […] Compound I-19 in components of human blood. Red blood cells and plasma were isolated from whole blood. […] Values represent mean+SEM of n=3 separate experiments.
FIG. 3B. Stability of Compound I-4 in components of human blood. Red blood cells and plasma were isolated from whole blood. […] Values represent mean+SEM of n=3 separate experiments.
Human and rat blood were centrifuged to separate out red blood cells at 1174×g for 15 min. The upper plasma level was aspirated with a micropipette and placed in a bleach solution for disposal. The RBC pellet was resuspended in sterile isotonic saline. The pellet was gently resuspended by rocking the tube. The sample was then centrifuged again to collect the RBC pellet and then resuspended and washed one more time following the same procedure. A total of three was done. Following the last wash and centrifugation, the RBCs were resuspended with PBS; and mixed by inversion. Aliquots of the resuspended and washed RBCs were then placed into 4 reaction tubes. These tubes were centrifuged to collect the RBCs. The fluid level was marked on each tube, then the supernatant was aspirated off and the cells resuspended with room temperature PBS pH 7.4 to the original mark. An aliquot of the RBC suspension was added to four sterile tubes containing PBS pH 7.4 at room temperature. […]

CYP2B6 = molecular target: T2, CYP2B6 (Homo sapiens, UniProt P20813); assay: biochemical
T2 sequence (P20813 1-491): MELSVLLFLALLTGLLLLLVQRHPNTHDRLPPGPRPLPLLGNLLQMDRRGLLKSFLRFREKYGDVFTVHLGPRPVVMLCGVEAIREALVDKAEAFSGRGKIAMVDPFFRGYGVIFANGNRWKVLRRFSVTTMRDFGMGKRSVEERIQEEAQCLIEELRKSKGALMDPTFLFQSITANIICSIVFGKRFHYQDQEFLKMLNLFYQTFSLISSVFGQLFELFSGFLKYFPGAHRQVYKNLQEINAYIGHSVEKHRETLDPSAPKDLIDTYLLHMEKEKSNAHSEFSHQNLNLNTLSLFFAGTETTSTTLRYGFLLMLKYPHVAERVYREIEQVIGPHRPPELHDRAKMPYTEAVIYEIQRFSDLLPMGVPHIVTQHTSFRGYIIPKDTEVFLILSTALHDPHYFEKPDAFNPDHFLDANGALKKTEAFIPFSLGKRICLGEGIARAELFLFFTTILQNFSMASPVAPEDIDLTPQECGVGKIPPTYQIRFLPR

[3] = dialysis time 1 h, 2 μM, 37° C.
[4] = dialysis time 2 h, 2 μM, 37° C.
[5] = dialysis time 4 h, 2 μM, 37° C.
[6] = dialysis time 6 h, 2 μM, 37° C.

**Q.** With Clc1ccc(C2(OCC3OCCO3)c3ccccc3C3=NCCN32)cc1 (stereo not shown) [Compound I-19] as the compound, how does the “Inhibition at Highest Test Article Concentration” value (CYP2C8; 2C8, Amodiaquine, at 50 μM) read?
**A.** Its value is 73.7 at 50 μM %.

**Q.** What about the IC50 (CYP2C8; microsomes) of the same compound?
**A.** The IC50 was 2380 nM.

**Q.** What about the “Stability in DPBS, plasma and brain homogenate” value ([1]; 2 μM, 37° C., 6 hours) of the same compound?
**A.** The value was “unstable in all three matrices”.

**Q.** What about the “% unbound in DPBS” value ([1]; 2 μM, 6 hours of dialysis) of the same compound?
**A.** The value was 94.0±5.12%.

**Q.** What about the “% recovery, DPBS alone” value ([1]; 6 hours of dialysis) of the same compound?
**A.** The value was 20.2±0.461%.

**Q.** And the “% Recovery” value [1, 3]?
**A.** Its value is 64.7 ± 3.04%.

**Q.** What about the “% Unbound” value [1, 3] of the same compound?
**A.** Its value is 40.3 ± 3.69%.

**Q.** What about the “% Recovery” value [1, 4] of the same compound?
**A.** Its value is 55.5 ± 2.08%.

**Q.** What about the “% Unbound” value [1, 4] of the same compound?
**A.** The value was 81.9 ± 5.87%.

**Q.** And the “% Recovery” value [1, 5]?
**A.** Its value is 32.6 ± 1.05%.

**Q.** And the “% Unbound” value [1, 5]?
**A.** The value was 91.1 ± 4.19%.

**Q.** What about the “% Recovery” value [1, 6] of the same compound?
**A.** The value was 20.2 ± 0.461%.

**Q.** What about the “% Unbound” value [1, 6] of the same compound?
**A.** The value was 94.0 ± 5.12%.

**Q.** And the “% parent compound remaining” value ([2]; human red blood cells)?
**A.** The value was “time-dependent decrease in the amount of parent compound present”.

**Q.** And the “% parent compound remaining” value ([2]; human whole blood)?
**A.** Its value is “time-dependent decrease in the amount of parent compound present”.

**Q.** Which IC50 (CYP2B6) does the source give for OC1(c2ccc(Cl)cc2)c2ccccc2C2=NCCN21 (stereo not shown) [Compound A, 5-(4-chlorophenyl)-2,3-dihydroimidazo[1,2-b]isoindol-5-ol, reference compound] here?
**A.** The IC50 was 92 nM.

Reference: patent publication US20250108038A1 (priority 2023, published 2025)
